Measured values from ChEMBL document CHEMBL1201862, “PubChem BioAssay data set” (2004).
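Grown in 96-well plates, cells were treated for 48 hours with each compound at five concentrations. Insufficient inhibition: endpoint recorded as highest concentration tested. Abbreviation: GI50, concentration required for 50% inhibition of growth.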 Active and inactive are the calls of the source. Cut-off read from the data, not from the text of the source: active = GI50 up to about 1.1 µM and inactive = higher.

Key:
Assay in all cases: NCI tumour cell line growth inhibition, 48 h
HOP-18 = system: HOP-18
SNB-19 = system: SNB-19
U-251 = system: U-251
NCI-H460 = system: NCI-H460
UO-31 = system: UO-31
SF-268 = system: SF-268
LXFL 529 = system: LXFL 529
SK-MEL-5 = system: SK-MEL-5
DLD-1 = system: DLD-1
SF-295 = system: SF-295
786-0 = system: 786-0
MOLT-4 = system: MOLT-4
SK-MEL-28 = system: SK-MEL-28
SF-539 = system: SF-539
SK-MEL-2 = system: SK-MEL-2
RXF 393 = system: RXF 393
SN12C = system: SN12C
NCI-H226 = system: NCI-H226
Malme-3M = system: Malme-3M
OVCAR-8 = system: OVCAR-8
COLO 205 = system: COLO 205
UACC-257 = system: UACC-257
M14 = system: M14
SR = system: SR
DMS-114 = system: DMS-114
RXF 631 = system: RXF 631
HL-60 = system: HL-60
A498 = system: A498
HOP-92 = system: HOP-92
CCRF-CEM = system: CCRF-CEM
KM12 = system: KM12
KM-20L2 = system: KM-20L2
NCI-H522 = system: NCI-H522
IGROV-1 = system: IGROV-1
OVCAR-5 = system: OVCAR-5
DMS-273 = system: DMS-273
OVCAR-4 = system: OVCAR-4
HCT-116 = system: HCT-116
HOP-62 = system: HOP-62
ACHN = system: ACHN
HT-29 = system: HT-29
A549 = system: A549
SNB-78 = system: SNB-78
SK-OV-3 = system: SK-OV-3
CAKI-1 = system: CAKI-1
K562 = system: K562
SW-620 = system: SW-620
SNB-75 = system: SNB-75
OVCAR-3 = system: OVCAR-3
EKVX = system: EKVX
NCI-H23 = system: NCI-H23

Measured: GI50

COc1ccc2c(c1)[n+]([O-])c(-c1ccc([N+](=O)[O-])cc1)c(N)[n+]2[O-]
inactive: HOP-18 > 100 µM | SNB-19 > 100 µM | U-251 68.1 µM | NCI-H460 49.5 µM | UO-31 > 100 µM | SF-268 78.2 µM | LXFL 529 39.5 µM | SK-MEL-5 > 100 µM | DLD-1 63.1 µM | SF-295 > 100 µM | 786-0 > 100 µM | MOLT-4 22.3 µM | SK-MEL-28 67 µM | SF-539 > 100 µM | SK-MEL-2 80.4 µM | RXF 393 > 100 µM | SN12C > 100 µM | NCI-H226 > 100 µM | Malme-3M > 100 µM | OVCAR-8 > 100 µM | COLO 205 47.4 µM | UACC-257 81.3 µM | M14 > 100 µM | SR 18.7 µM | DMS-114 21.4 µM | RXF 631 > 100 µM | HL-60 57.5 µM | A498 > 100 µM | HOP-92 > 100 µM | CCRF-CEM 56.5 µM | KM12 > 100 µM | KM-20L2 49.5 µM | NCI-H522 12.7 µM | IGROV-1 75.2 µM | OVCAR-5 > 100 µM | DMS-273 > 100 µM | OVCAR-4 > 100 µM | HCT-116 26.6 µM | HOP-62 > 100 µM | ACHN > 100 µM | HT-29 65.5 µM | A549 70.8 µM | SNB-78 96.4 µM | SK-OV-3 > 100 µM | CAKI-1 > 100 µM | K562 32.6 µM | SW-620 > 100 µM | SNB-75 > 100 µM | OVCAR-3 > 100 µM | EKVX > 100 µM | NCI-H23 88.5 µM
